Source: patent US7041785B1, “B1-bradykinin receptor antagonists and use thereof” (Université de Sherbrooke, priority 1996, dated 2006)
Non-standard residues stand in square brackets, D forms with d. Residues, ends and D or L forms follow the SMILES beside them. d2Nal = N[C@H](Cc1ccc2ccccc2c1)C(=O)O; dTic = O=C(O)[C@H]1Cc2ccccc2CN1; NMeA = CN[C@@H](C)C(=O)O

Legend:
[1] = biological target: T1, B1 receptor (Oryctolagus cuniculus, UniProt P48748); assay: cell-based; settings: for Kb: Rb.A. pA2, apparent affinity as antagonist vs desArg9BK; for Rb.A. α^E: residual agonistic activity at 10 μg/mL in comparison with desArg9BK
T1 sequence (P48748 1-352): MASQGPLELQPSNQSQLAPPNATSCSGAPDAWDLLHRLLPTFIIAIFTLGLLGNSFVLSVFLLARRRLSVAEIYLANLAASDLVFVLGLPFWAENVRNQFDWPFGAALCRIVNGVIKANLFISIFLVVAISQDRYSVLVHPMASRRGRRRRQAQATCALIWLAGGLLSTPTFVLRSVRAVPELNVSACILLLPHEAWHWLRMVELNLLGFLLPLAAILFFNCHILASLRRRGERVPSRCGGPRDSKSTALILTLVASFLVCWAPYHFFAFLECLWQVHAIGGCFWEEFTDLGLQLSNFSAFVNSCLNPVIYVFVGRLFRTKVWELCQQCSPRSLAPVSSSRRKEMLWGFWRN
Text: (§1) Tissues were taken from New Zealand white rabbits (1.5–2.5 kg) and Dunken Hartley guinea pigs (250–350 g) of either sex, killed by stunning and exsanguination. Umbilical cords were taken from healthy women 22–40 years old after spontaneous delivery at term. The rabbit jugular vein (RbJV), the guinea pig ileum (GPI), two preparations containing B2 receptors, the rabbit aorta (RbA) (B1 receptor) and the human umbilical vein (HUV), a mixed preparation containing both B1 and B2 receptors^10, were used. Helical strips of RbJV treated with 1 μmol/L of captopril to avoid peptide degradation by the angiotensin-converting enzyme (ACE), alias kininase II were prepared according to Gaudreau et al.^11 Helical strips of RbA devoid of endothelium were prepared according to Furchgott and Bhadrakom^12. Longitudinal segments of GPI were prepared with the procedure described by Rang^13. Helical strips of HUV were prepared according to Gobeil et al.^10. The tissues were suspended in 10-ml organ baths containing warm (37EC), oxygenated (95% O2–5% CO2) Krebs solution of the following composition in mmol/L; NaCl: 118.1; KCl: 4.7; CaCl26H2O: 2.5; KH2PO4: 1.2; MgSO47H2O: 1.18; NaHCO3: 25.0 and D-Glucose: 5.5. The RbA and the HUV were stretched with an initial tension of 2 g, whereas the RbJV and the GPI were loaded with 0.5 g. Changes of tension produced by the various agents were measured with Grass isometric transducers (model FT 03C, Grass Instrument Co., Quincy, Mass.). […] Before testing the drugs, the tissues were allowed to equilibrate for 60–120 min during which time the tissues were repeatedly washed and the tension readjusted every 15 min.
(§2) At the beginning of each experiment, a submaximal dose of bradykinin (BK) (9 nmol/L), was applied repeatedly on the RbJV, the GPI or the HUV to ensure that tissues responded with stable contractions. […] A similar protocol was used for the HUV.
(§3) Repeated applications of a singl and double concentration of BK (on RbJV, GPI and HUV) and of desArg^9BK (RbA and HUV) were made in the absence and in presence of the various peptides to evaluate their apparent affinities as antagonists, in terms of pA2 (-log10 of the molar concentration of antagonist that reduces the effect of a double concentration of agonist to that of a single one)^14. The antagonists were applied 10 min before measuring the myotropic effects of either BK (the B2 receptor agonist) or desArg^9BK (the B1 receptor agonist). […] All kinin antagonists were initially applied to tissues at concentration of 10 μg/mL to measure their potential agonistic activities (α^E) in comparison with BK (in the B2 receptor preparations) or desArg^9BK (in the B1 receptor preparations).

[2] = biological target: T2, B2 receptor (Cavia porcellus, UniProt O70526); assay: cell-based; settings: for G.P.I. pA2: vs BK, Inactive = no detectable antagonistic effect at ≦ 10 μg/ml, F.ag. full agonist, P.ag. partial agonist; for G.P.I. α^E: residual agonistic activity at 10 μg/mL in comparison with BK
T2 sequence (O70526 1-372): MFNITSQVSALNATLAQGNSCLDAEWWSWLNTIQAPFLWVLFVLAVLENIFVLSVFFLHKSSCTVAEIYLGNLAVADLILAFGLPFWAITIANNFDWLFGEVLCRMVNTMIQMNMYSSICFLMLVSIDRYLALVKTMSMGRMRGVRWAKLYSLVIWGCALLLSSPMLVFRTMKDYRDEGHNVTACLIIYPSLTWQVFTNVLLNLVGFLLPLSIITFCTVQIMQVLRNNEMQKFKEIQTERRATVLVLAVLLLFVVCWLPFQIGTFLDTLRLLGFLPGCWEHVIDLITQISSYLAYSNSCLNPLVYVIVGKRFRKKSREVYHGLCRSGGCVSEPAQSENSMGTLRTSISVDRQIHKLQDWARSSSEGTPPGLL
Text: as §1, §2, §3

[3] = test system: T3, angiotensin-converting enzyme (ACE); assay: Metabolic degradation by purified angiotensin-converting enzyme, HPLC analysis; format: in vitro ADME, rabbit; settings: rabbit, isolated enzyme ace, pH 7.5
T3 construct: purified angiotensin-converting enzyme (ACE) from rabbit lungs; purchased Sigma, St-Louis, Mo; host or cells: purified from rabbit lungs
Procedure: The metabolic stability of various kinin-related peptides was evaluated by incubating the peptide in the presence of purified angiotensin-converting enzyme (ACE) from rabbit lungs (purchased from Sigma, St-Louis, Mo.) dissolved in phosphate buffered saline (PBS) (50 mmol/L, pH 7.5 containing 300 mmoL/L NaCl); the final concentration of enzyme was 45 μg/mL. The experimental protocol for the measurement of ACE activity has been described elsewhere^15,16. Briefly, 200 μmol/L of peptides (40 μL) were placed in a PBS buffer and incubated for 5 min at 37EC before adding 8.5 μL of ACE (total volume of the reaction medium; 190 μL). Samples were withdrawn at 30 min intervals, immersed in boiling water for 5 min, then cooled on ice and centrifuged (5 min) before proceeding to analysis of peptides by high pressure liquid chromatography (HPLC). Results of ACE metabolism are expressed in percent of kinin degradation following the incubation (30 min) of kinin substrates with the enzyme.
Pure peptides and metabolic products were analysed by reverse-phas HPLC on a C18 μBondapak column (4.6 mm×25 cm) (Waters) of 10-μm particle size. The peptides and their fragments were eluted at the rate of 2.0 mL/min. with a linear gradient ranging from 5 to 65% of acetonitrile/TFA 0.05%/water over 20 min. at room temperature. The elution positions of these peptides were determined by following the absorbance at 214 nm. For each assay, 50 μL of the reaction medium (treated or not with ACE) were extracted and injected into the column. Concentrations of the peaks products, different from the peaks of the peptide substrate, were estimated using a computer software program (Baseline 810; Waters) that controlled also all the chromatography operations. Isolated metabolites and substrates were collected and identified by Electrospray mass spectrometry (positive mode).

[4] = biological target: T4, B2 receptor (Oryctolagus cuniculus, UniProt Q28642); settings: vs BK; captopril 1 μmol/L; Inactive = no detectable antagonistic effect at ≦ 10 μg/ml
T4 sequence (Q28642 1-367): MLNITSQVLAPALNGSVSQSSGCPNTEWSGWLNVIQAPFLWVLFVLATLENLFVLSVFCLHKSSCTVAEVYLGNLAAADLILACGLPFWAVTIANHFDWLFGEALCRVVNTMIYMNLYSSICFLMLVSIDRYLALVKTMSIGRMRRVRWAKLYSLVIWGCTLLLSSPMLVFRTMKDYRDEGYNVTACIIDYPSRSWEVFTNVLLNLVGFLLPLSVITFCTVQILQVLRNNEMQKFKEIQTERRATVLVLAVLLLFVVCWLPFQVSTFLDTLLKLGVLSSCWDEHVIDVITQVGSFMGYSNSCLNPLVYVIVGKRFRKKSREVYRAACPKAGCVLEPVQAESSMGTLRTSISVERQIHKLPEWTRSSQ

[5] = biological target: T4, B2 receptor; assay: cell-based; settings: residual agonistic activity at 10 μg/mL in comparison with BK
Text: as §1, §2, §3

[6] = antagonist applied 10 min before, Inactive = no detectable antagonistic effect at ≦ 10 μg/ml

Compound | Kb [1, 6] [µM] | G.P.I. pA2 [2] | metabolised at 0.5 h, 42.1 μmol/L [3] [%] | Rb.J.V. pA2 [4] | Kb [2] [µM] | Rb.A. α^E [1] | G.P.I. α^E [2] | Rb.J.V. α^E [5] | EC50 [2] [µM] | metabolised at 0.5 h [3] [%] | Rb.A. pA2 ([1]; apparent affinity as antagonist vs desArg9BK, antagonist applied 10 min before, Inactive = no detectable antagonistic effect at ≦ 10 μg/ml)
CC(C)C[C@H](NC(=O)[C@@H]1CCCN1C(=O)[C@H](CO)NC(=O)[C@H](Cc1ccccc1)NC(=O)CNC(=O)[C@@H]1C[C@@H](O)CN1C(=O)[C@@H]1CCCN1C(=O)[C@H](CCCNC(=N)N)NC(=O)[C@@H](N)CCCCN)C(=O)O [Compound 3, Lys(Hyp^3, Leu^8)desArg^9BK] | 0.00692 | Inactive | 40 ± 3 | Inactive |  |  |  |  |  |  | 
CC(C)C[C@H](NC(=O)[C@@H]1CCCN1C(=O)[C@H](CO)NC(=O)[C@H](Cc1ccccc1)NC(=O)CNC(=O)[C@@H]1C[C@@H](O)CN1C(=O)[C@@H]1CCCN1C(=O)[C@H](CCCNC(=N)N)NC(=O)[C@H](N)CCCNC(=N)N)C(=O)O [Compound 4, D-Arg(Hyp^3, Leu^8)desArg^9BK] | 0.339 |  | 83 ± 2 | Inactive | > 9.55 |  |  |  |  |  | 
CC(=O)N[C@@H](CCCCN)C(=O)N[C@@H](CCCNC(=N)N)C(=O)N1CCC[C@H]1C(=O)N1C[C@H](O)C[C@H]1C(=O)NCC(=O)N[C@@H](Cc1ccccc1)C(=O)N[C@@H](CO)C(=O)N1CCC[C@H]1C(=O)N[C@@H](CC(C)C)C(=O)O [Compound 5, AcLys(Hyp^3, Leu^8)desArg^9BK] | 0.178 |  | 66 ± 1 | Inactive | > 9.55 | 0 | 0.30 | 0.03 |  |  | 
CC(=O)N[C@@H](CCCCN)C(=O)N[C@@H](CCCNC(=N)N)C(=O)N1CCC[C@H]1C(=O)N1CCC[C@H]1C(=O)NCC(=O)N[C@@H](Cc1ccccc1)C(=O)N[C@@H](CO)C(=O)N1Cc2ccccc2C[C@@H]1C(=O)N[C@@H](CC(C)C)C(=O)O [Compound 11, AcLys(D-Tic^7, Leu^8)desArg^9BK] (Ac-KRPPGFS[dTic]L-OH; C-terminus assumed) | 6.76 |  |  | Inactive |  | 0 |  | 0.37 | 1.41 | 0 | 
CC(=O)N[C@@H](CCCCN)C(=O)N[C@@H](CCCNC(=N)N)C(=O)N1CCC[C@H]1C(=O)N1CCC[C@H]1C(=O)NCC(=O)N[C@@H](Cc1ccccc1)C(=O)N(C)[C@@H](C)C(=O)N1CCC[C@H]1C(=O)N[C@@H](CC(C)C)C(=O)O [Compound 21, AcLys(N-MeAla^6, Leu^8)desArg^9BK, reference compound] (Ac-KRPPGF[NMeA]PL-OH; C-terminus assumed) | 0.282 | Inactive | 0 | Inactive |  | 0.01 | 0.19 | 0 |  |  | 
CC[C@H](C)[C@H](NC(=O)[C@@H](Cc1ccc2ccccc2c1)NC(=O)[C@H](C)N(C)C(=O)[C@H](Cc1ccccc1)NC(=O)CNC(=O)[C@@H]1CCCN1C(=O)[C@@H]1CCCN1C(=O)[C@H](CCCNC(=N)N)NC(=O)[C@H](CCCCN)NC(C)=O)C(=O)O [Compound 22, AcLys(N-MeAla^6, D-βNal^7, IIe^8)desArg^9BK] (Ac-KRPPGF[NMeA][d2Nal]I-OH; C-terminus assumed) | 0.537 | P.ag. | 0 | Inactive |  | 0 |  | 0.03 |  |  | 
D-Arg(Hyp^3, D-Hyp^7(trans propyl), Oic^8)desArg^9BK [Compound 33, reference compound] |  |  |  | 6.99 ± 0.04 |  | 0 | 0 | 0 |  |  | 7.94 ± 0.06
